Values quoted from earlier work in patent publication US7829717B2, “(Arylamidoaryl)squaramide compounds” (OSI Pharmaceuticals, Inc., priority 2004, dated 2010).
Where a name gives a salt, the structure may show the parent alone.

Tested on: MO7e human leukemia cells

Compound: Cc1ccc(NC(=O)c2ccc(CN3CCN(C)CC3)cc2)cc1Nc1nccc(-c2cccnc2)n1 [Gleevec, imatinib mesylate]
- GM-CSF stimulated growth of MO7e human leukemia cells (GM-CSF stimulated): not affected
- Kit ligand-stimulated growth of MO7e human leukemia cells (Kit ligand-stimulated): inhibited
